Measured values taken from patent US7812177B2, “Potassium channel opener having benzofuroindole skeleton” (Anygen Co., Ltd., priority 2005, dated 2010).
“Also recorded” adds a separate entry of the source. Each block holds one compound with its values, some of them ahead of it.

Tests used:
BKCa channel = BKCa channel (Homo sapiens, UniProt Q12791); conditions: similar assay system, same concentration (20 μM); cited from earlier work
rSlo channel [1] = target: T1, rSlo channel (Rattus norvegicus, UniProt Q62976); test: Concentration-dependence of channel opening, compound applied to the extracellular side of membrane patches; format: cell-based; conditions: extracellular application
T1 construct: expressed in transfected cells; host or cells: Xenopus laevis oocytes
Source text: FIG. 6 illustrates concentration-dependence activity of compound 8 on BKCa channel. FIG. 6A illustrates concentration-dependence activity of rSlo channel. FIG. 6B illustrates concentration-dependence activity of rSlo channel combined with human β1. FIG. 6C illustrates concentration-dependence activity of rSlo channel combined with rat β4 subunit.
(§1) We then measured the concentration-dependence of compound 8 of the present invention. […] Although we were not able to obtain a concentration of compound 8 higher than 300 μM because of its solubility in water, we noticed that compound 8-induced current increases reached plateau levels at around 100 μM. […] We also measured the effects of compound 8 using inside-out patch configuration to determine whether this compound also affects channel activity from the intracellular side. The intracellular Ca^2+ concentration was fixed at 2 μM to activate rSlo channels, and different concentrations of compound 8 were added to the intracellular side of the membrane.

[2] = Solubility in water (highest obtainable concentration); format: physicochemical; conditions: read-out: highest obtainable concentration because of solubility in water
Description: as §1

[3] = target: T2, cloned α subunit of rat BKCa channels, rSlo (Rattus norvegicus, UniProt Q62976); test: Excised outside-out voltage clamp recording, fold increase of BKCa channel currents by extracellularly applied compounds; format: cell-based; conditions: extracellular treatment at 20 μM; outside-out patch, Xenopus laevis oocytes expressing rSlo
T2 construct: expressed in transfected cells; host or cells: Xenopus laevis oocytes
Description: FIG. 3 illustrates relative fold-increase of BKCa channel activity by extracellularly applied benzofuroindole analogues of present invention. Bar graphs represent fold increases in BKCa channel currents evoked by extracellular treatment of various compounds at 20 μM.
The biological activity of compounds 7˜23 to open BKCa channels and increase the BKCa channel currents was determined by using excised outside-out voltage clamp recording from Xenopus laevis oocytes expressing cloned α subunit of rat BKCa channels, rSlo.

rSlo channel [4] = target: T1, rSlo channel; test: Potentiating effect on rSlo channels at various intracellular Ca2+ concentrations, outside-out patch; format: cell-based; conditions: 20 μM extracellular
Description: FIG. 4 illustrates potency of extracellularly applied compound 22 on rSlo channels in various intracellular Ca^2+ concentrations. Representative raw-traces were shown at different intracellular Ca^2+ concentrations. Intracellular Ca^2+ concentration was increased from Ca^2+-free (A), 0.5 μM (B), 1 μM (C) and 2 μM (D). The concentration of compound 22 was 20 μM on the extracellular side.
To investigate the potentiating effect of compound 22 on rSlo channels at various intracellular Ca^2+ concentrations, rSlo channels were activated in different concentrations of intracellular Ca^2+.
Excised outside-out patch configurations were obtained by making a gigaohm seal, rupturing the membrane pulling the pipette from oocytes. Both of the bath and pipette contained symmetrical 124 mM K^+ ions. Voltage pulses were applied to activate rSlo channel currents from −120 mV to 140 mV in 10 mV increments and intracellular Ca^2+ concentrations were used to activate rSlo channel from 0 (Ca^2+-free solution was to chelate with 5 mM EGTA) to 2 μM in intracellular side.
The representative raw-traces of rSlo channel activated by membrane voltages and intracellular Ca^2+ (FIG. 4). rSlo channel currents were recorded before and after the addition of 20 μM of compound 22.

rSlo channel [5] = target: T1, rSlo channel; test: Concentration dependence on macroscopic rSlo channel activity expressed in Xenopus oocytes, Hill fit; format: cell-based
Description: FIG. 5 illustrates concentration-dependence of compound 22 on BKCa channel. Data points were fitted with Hill equation.
We performed experiments to determine the concentration dependence for the effect of compound 22 on macroscopic rSlo channel activity expressed in Xenopus oocytes.
Currents were recorded from excised outside-out patches before and after the addition of seven different concentrations of compound 22, from 0 to 300 μM. Channel activity of rSlo was elicited after patch excision with 2 μM intracellular Ca^2+ and increased rapidly with the addition of compound 22. Membrane potential was held at −120 mV and stepped to 50 mV for 50 ms. Relative current differences were determined from the currents of control activated with 2 μM of intracellular Ca^2+ and voltage at 50 mV, normalized with control currents and the obtained data points were fitter with a Hill equation (FIG. 5).

T2 sequence (Q62976 whole entry): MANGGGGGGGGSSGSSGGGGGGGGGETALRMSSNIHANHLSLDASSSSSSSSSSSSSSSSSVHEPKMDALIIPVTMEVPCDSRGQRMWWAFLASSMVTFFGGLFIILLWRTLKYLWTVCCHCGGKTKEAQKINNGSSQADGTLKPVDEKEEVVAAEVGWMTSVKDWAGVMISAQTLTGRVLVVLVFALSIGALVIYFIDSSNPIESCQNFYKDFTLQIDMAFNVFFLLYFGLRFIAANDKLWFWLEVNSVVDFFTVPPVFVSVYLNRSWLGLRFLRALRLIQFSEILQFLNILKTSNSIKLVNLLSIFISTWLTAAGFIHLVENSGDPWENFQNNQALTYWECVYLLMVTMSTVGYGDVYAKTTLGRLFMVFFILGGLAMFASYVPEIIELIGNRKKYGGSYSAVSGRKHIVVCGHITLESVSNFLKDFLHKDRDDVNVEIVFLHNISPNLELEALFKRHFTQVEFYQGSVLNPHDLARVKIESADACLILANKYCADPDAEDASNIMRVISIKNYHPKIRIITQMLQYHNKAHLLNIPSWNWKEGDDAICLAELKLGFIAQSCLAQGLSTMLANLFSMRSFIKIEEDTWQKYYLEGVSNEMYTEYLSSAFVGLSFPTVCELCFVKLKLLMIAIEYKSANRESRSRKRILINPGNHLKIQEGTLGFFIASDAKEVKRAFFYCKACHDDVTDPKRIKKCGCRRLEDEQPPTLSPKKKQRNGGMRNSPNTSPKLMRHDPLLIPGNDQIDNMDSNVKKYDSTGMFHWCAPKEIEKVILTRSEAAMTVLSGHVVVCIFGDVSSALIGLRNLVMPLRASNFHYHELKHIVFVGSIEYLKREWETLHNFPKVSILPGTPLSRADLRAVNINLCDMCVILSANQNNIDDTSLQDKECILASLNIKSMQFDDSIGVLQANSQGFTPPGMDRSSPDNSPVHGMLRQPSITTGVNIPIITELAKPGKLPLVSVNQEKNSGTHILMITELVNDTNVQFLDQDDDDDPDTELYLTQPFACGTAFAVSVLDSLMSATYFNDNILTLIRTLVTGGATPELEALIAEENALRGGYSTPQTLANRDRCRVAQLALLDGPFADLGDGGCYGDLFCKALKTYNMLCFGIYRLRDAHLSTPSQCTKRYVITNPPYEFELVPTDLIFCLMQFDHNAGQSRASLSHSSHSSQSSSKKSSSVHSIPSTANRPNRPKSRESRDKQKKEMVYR
T1 sequence (Q62976 whole entry): as above
Sequence of BKCa channel (Q12791 whole entry): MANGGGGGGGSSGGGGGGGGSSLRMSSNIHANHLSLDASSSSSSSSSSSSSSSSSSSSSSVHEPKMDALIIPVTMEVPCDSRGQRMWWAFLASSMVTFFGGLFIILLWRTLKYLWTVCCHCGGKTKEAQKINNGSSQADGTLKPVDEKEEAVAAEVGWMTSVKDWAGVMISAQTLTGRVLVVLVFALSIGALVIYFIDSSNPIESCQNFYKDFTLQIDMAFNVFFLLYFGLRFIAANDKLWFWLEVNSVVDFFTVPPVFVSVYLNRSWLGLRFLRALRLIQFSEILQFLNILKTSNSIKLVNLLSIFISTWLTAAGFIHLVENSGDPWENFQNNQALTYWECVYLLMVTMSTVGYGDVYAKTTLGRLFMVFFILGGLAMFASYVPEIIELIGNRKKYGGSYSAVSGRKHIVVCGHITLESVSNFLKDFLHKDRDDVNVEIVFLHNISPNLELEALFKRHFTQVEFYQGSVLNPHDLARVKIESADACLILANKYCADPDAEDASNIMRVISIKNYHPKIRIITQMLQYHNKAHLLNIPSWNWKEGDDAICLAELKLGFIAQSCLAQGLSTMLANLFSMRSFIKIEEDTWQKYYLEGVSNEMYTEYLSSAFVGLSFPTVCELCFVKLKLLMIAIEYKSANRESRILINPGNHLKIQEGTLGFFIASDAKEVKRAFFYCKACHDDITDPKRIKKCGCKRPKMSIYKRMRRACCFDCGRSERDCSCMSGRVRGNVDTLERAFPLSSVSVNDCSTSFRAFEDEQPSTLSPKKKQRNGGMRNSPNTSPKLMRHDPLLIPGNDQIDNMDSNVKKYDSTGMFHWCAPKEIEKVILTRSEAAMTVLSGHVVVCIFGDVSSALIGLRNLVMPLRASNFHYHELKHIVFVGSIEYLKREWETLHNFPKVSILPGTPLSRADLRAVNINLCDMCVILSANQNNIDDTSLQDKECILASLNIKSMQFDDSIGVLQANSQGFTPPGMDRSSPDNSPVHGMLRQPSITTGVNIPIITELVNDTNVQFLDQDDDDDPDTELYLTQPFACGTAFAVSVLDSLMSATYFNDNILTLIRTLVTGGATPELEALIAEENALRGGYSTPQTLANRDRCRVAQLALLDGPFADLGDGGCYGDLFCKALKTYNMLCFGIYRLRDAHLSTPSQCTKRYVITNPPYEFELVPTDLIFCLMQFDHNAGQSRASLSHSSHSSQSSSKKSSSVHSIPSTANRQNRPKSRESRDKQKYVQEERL

SMILES: COc1ccc(Cl)cc1[C@]1(F)C(=O)Nc2cc(C(F)(F)F)ccc21 [BMS-204352]
reported fold increase (BKCa channel): around 1.5

SMILES: COc1ccc(Cl)cc1-c1c(CCO)c(=O)[nH]c2ccc(C(F)(F)F)cc12 [Compound 2]
reported fold increase (BKCa channel): ~3.7

EC50 (rSlo channel [1]): 8.9 ± 1.5 µM
solubility [2]: ≤ 300 µM
SMILES: O=C(O)c1cccc2c1[nH]c1c3ccc(C(F)(F)F)cc3oc21 [Compound 8, 7-Trifluoromethyl-10H-benzo[4,5]furo[3,2-b]indole-1-carboxylic acid]

fold increase of BKCa channel currents [3]: activity near to the basal level
SMILES: FC(F)(F)c1ccc2c(c1)oc1c3ccc(Cl)c(Cl)c3[nH]c21 [Compound 18, 1,2-Dichloro-7-trifluoromethyl-10H-benzo[4,5]furo[3,2-b]indole]

fold increase of BKCa channel currents [3]: activity near to the basal level
SMILES: FC(F)(F)c1ccc2c(c1)oc1c2[nH]c2cc(Cl)cc(Cl)c21 [Compound 19, 2,4-Dichloro-7-trifluoromethyl-10H-benzo[4,5]furo[3,2-b]indole]

fold increase of BKCa channel currents [3]: more than 6 fold
reversibility of enhanced rSlo current by washout (rSlo channel [4]; all tested intracellular Ca2+ concentrations): could be removed by washout
Kd (rSlo channel [5]; 2 μM intracellular Ca2+, step to 50 mV, N=5, read-out: Kd, apparent dissociation constant (Hill fit)): 4.01 ± 0.75 µM
SMILES: O=C(O)c1ccc(Cl)c2c1[nH]c1c3ccc(C(F)(F)F)cc3oc12 [Compound 22, 4-Chloro-7-trifluoromethyl-10H-benzo[4,5]furo[3,2-b]indole-1-carboxylic acid]
effect on rSlo channel current (rSlo channel [4]; intracellular Ca2+ from Ca2+-free to 2 μM): markedly significant effects on rSlo channel current; also recorded: intracellular Ca^2+ concentrations do not affect the potentiating effect
effect on rSlo current over concentration range (rSlo channel [5]; 50 nM to 300 μM): enhanced rSlo current in a concentration dependent manner

SMILES: O=C(O)c1cc(Cl)cc2c1[nH]c1c3ccc(C(F)(F)F)cc3oc21 [Compound 23, 3-Chloro-7-trifluoromethyl-10H-benzo[4,5]furo[3,2-b]indole-1-carboxylic acid]
fold increase of BKCa channel currents [3]: close but not better channel opening activity than compound 22
